Results reported in the NIST ThermoML archive (doi:10.1021/je5007407).
Several values for one entry are separate records, joined by “and”; a condition that tells them apart may be missing. Equal entries are not always repeated.

Experiment: xn = mol fraction of the nth substance listed
Details: Gas, Frequency=2 MHz, Pulse-echo method

CCC [propane] + O=C=O
Details | speed of sound
298.18 K, 100010 kPa, x2 = 0.9376 | 1076.7 m/s
298.18 K, 125020 kPa, x2 = 0.9376 | 1162.3 m/s
298.18 K, 149960 kPa, x2 = 0.9376 | 1236.7 m/s
298.18 K, 175000 kPa, x2 = 0.9376 | 1302.7 m/s
298.18 K, 200100 kPa, x2 = 0.9376 | 1364.5 m/s
323.09 K, 24930 kPa, x2 = 0.9683 | 534.6 m/s
323.09 K, 24940 kPa, x2 = 0.9683 | 534.8 m/s
323.09 K, 50140 kPa, x2 = 0.9683 | 752.6 m/s
323.09 K, 75000 kPa, x2 = 0.9683 | 890.2 m/s
323.09 K, 75070 kPa, x2 = 0.9683 | 897.6 m/s
323.09 K, 100590 kPa, x2 = 0.9683 | 1000.1 m/s
323.09 K, 125560 kPa, x2 = 0.9683 | 1088.7 m/s
323.09 K, 149970 kPa, x2 = 0.9683 | 1164.3 m/s
323.09 K, 175330 kPa, x2 = 0.9683 | 1234.8 m/s
323.09 K, 200000 kPa, x2 = 0.9683 | 1296.5 m/s
323.1 K, 30220 kPa, x2 = 0.9907 | 590.1 m/s
323.1 K, 30230 kPa, x2 = 0.9907 | 589.8 m/s
323.1 K, 49980 kPa, x2 = 0.9907 | 747 m/s
323.1 K, 75170 kPa, x2 = 0.9907 | 886.1 m/s
323.1 K, 100210 kPa, x2 = 0.9907 | 992.6 m/s
323.1 K, 124810 kPa, x2 = 0.9907 | 1080.5 m/s
323.1 K, 149980 kPa, x2 = 0.9907 | 1157.2 m/s
323.1 K, 174620 kPa, x2 = 0.9907 | 1224.1 m/s
323.1 K, 200340 kPa, x2 = 0.9907 | 1288.4 m/s
323.13 K, 50000 kPa, x2 = 0.9981 | 745.6 m/s
323.13 K, 50020 kPa, x2 = 0.9981 | 745.8 m/s
323.13 K, 75120 kPa, x2 = 0.9981 | 883.4 m/s
323.13 K, 100030 kPa, x2 = 0.9981 | 988.9 m/s
323.13 K, 124980 kPa, x2 = 0.9981 | 1076.8 m/s
323.13 K, 150000 kPa, x2 = 0.9981 | 1153.2 m/s
323.13 K, 175020 kPa, x2 = 0.9981 | 1220.9 m/s
323.13 K, 200000 kPa, x2 = 0.9981 | 1282.1 m/s
323.19 K, 15120 kPa, x2 = 0.9376 | 381.2 m/s
323.19 K, 15160 kPa, x2 = 0.9376 | 381.4 m/s
323.19 K, 25000 kPa, x2 = 0.9376 | 541.2 m/s
323.19 K, 50090 kPa, x2 = 0.9376 | 758.5 m/s
323.19 K, 75070 kPa, x2 = 0.9376 | 897.6 m/s
323.19 K, 100040 kPa, x2 = 0.9376 | 1005.2 m/s
323.19 K, 125050 kPa, x2 = 0.9376 | 1095.7 m/s
323.19 K, 150020 kPa, x2 = 0.9376 | 1173.9 m/s
323.19 K, 175000 kPa, x2 = 0.9376 | 1243.4 m/s
323.19 K, 200420 kPa, x2 = 0.9376 | 1307.5 m/s
348.09 K, 30390 kPa, x2 = 0.9683 | 504.8 m/s
348.09 K, 30400 kPa, x2 = 0.9683 | 504.8 m/s
348.09 K, 49950 kPa, x2 = 0.9981 | 667.1 m/s and 667.2 m/s
348.09 K, 50030 kPa, x2 = 0.9683 | 675.2 m/s
348.09 K, 50360 kPa, x2 = 0.9907 | 672.7 m/s
348.09 K, 50370 kPa, x2 = 0.9907 | 672.7 m/s
348.09 K, 75020 kPa, x2 = 0.9981 | 813.6 m/s
348.09 K, 75080 kPa, x2 = 0.9907 | 816.9 m/s
348.09 K, 75220 kPa, x2 = 0.9683 | 823 m/s
348.09 K, 99980 kPa, x2 = 0.9981 | 924.6 m/s
348.09 K, 100580 kPa, x2 = 0.9907 | 931.1 m/s
348.09 K, 100600 kPa, x2 = 0.9683 | 937.3 m/s
348.09 K, 124980 kPa, x2 = 0.9981 | 1016.6 m/s
348.09 K, 125530 kPa, x2 = 0.9683 | 1029 m/s
348.09 K, 125700 kPa, x2 = 0.9907 | 1023.2 m/s
348.09 K, 149990 kPa, x2 = 0.9981 | 1095.6 m/s
348.09 K, 150440 kPa, x2 = 0.9683 | 1109.4 m/s
348.09 K, 150600 kPa, x2 = 0.9907 | 1101.4 m/s
348.09 K, 174720 kPa, x2 = 0.9683 | 1178.6 m/s
348.09 K, 175000 kPa, x2 = 0.9981 | 1165.6 m/s
348.09 K, 175290 kPa, x2 = 0.9907 | 1171.4 m/s
348.09 K, 200000 kPa, x2 = 0.9981 | 1228.6 m/s
348.09 K, 200040 kPa, x2 = 0.9683 | 1243.8 m/s
348.09 K, 200720 kPa, x2 = 0.9907 | 1236.7 m/s
348.18 K, 25040 kPa, x2 = 0.9376 | 446.6 m/s
348.18 K, 25050 kPa, x2 = 0.9376 | 446.8 m/s
348.18 K, 50050 kPa, x2 = 0.9376 | 682.3 m/s
348.18 K, 75100 kPa, x2 = 0.9376 | 830.6 m/s
348.18 K, 100100 kPa, x2 = 0.9376 | 943.7 m/s
348.18 K, 125020 kPa, x2 = 0.9376 | 1037.1 m/s
348.18 K, 149940 kPa, x2 = 0.9376 | 1117.7 m/s
348.18 K, 174970 kPa, x2 = 0.9376 | 1189.8 m/s
348.18 K, 200000 kPa, x2 = 0.9376 | 1254.3 m/s
373.1 K, 74950 kPa, x2 = 0.9981 | 754.4 m/s
373.1 K, 74970 kPa, x2 = 0.9981 | 754.7 m/s
373.1 K, 100020 kPa, x2 = 0.9981 | 869.7 m/s
373.1 K, 125030 kPa, x2 = 0.9981 | 963.9 m/s
373.1 K, 150000 kPa, x2 = 0.9981 | 1044.4 m/s
373.1 K, 175000 kPa, x2 = 0.9981 | 1115.5 m/s
373.1 K, 200000 kPa, x2 = 0.9981 | 1179.3 m/s
373.12 K, 25050 kPa, x2 = 0.9376 | 384.7 m/s
373.12 K, 25060 kPa, x2 = 0.9376 | 385 m/s
373.12 K, 35140 kPa, x2 = 0.9683 | 488.3 m/s
373.12 K, 35170 kPa, x2 = 0.9683 | 488.8 m/s
373.12 K, 49890 kPa, x2 = 0.9376 | 618.8 m/s
373.12 K, 49950 kPa, x2 = 0.9683 | 611.6 m/s
373.12 K, 75070 kPa, x2 = 0.9683 | 764.5 m/s
373.12 K, 75090 kPa, x2 = 0.9376 | 772.6 m/s
373.12 K, 100000 kPa, x2 = 0.9376 | 889.4 m/s
373.12 K, 100300 kPa, x2 = 0.9683 | 881.3 m/s
373.12 K, 124970 kPa, x2 = 0.9376 | 985.6 m/s
373.12 K, 125160 kPa, x2 = 0.9683 | 976.5 m/s
373.12 K, 149930 kPa, x2 = 0.9376 | 1069 m/s
373.12 K, 150000 kPa, x2 = 0.9683 | 1057.9 m/s
373.12 K, 174970 kPa, x2 = 0.9376 | 1141.6 m/s
373.12 K, 175220 kPa, x2 = 0.9683 | 1131.5 m/s
373.12 K, 200010 kPa, x2 = 0.9683 | 1196.4 m/s
373.12 K, 200030 kPa, x2 = 0.9376 | 1208.7 m/s
373.13 K, 50050 kPa, x2 = 0.9907 | 607.3 m/s
373.13 K, 50070 kPa, x2 = 0.9907 | 607.5 m/s
373.13 K, 76000 kPa, x2 = 0.9907 | 763.8 m/s
373.13 K, 100270 kPa, x2 = 0.9907 | 874.4 m/s
373.13 K, 125410 kPa, x2 = 0.9907 | 970.3 m/s
373.13 K, 150430 kPa, x2 = 0.9907 | 1051.5 m/s
373.13 K, 174660 kPa, x2 = 0.9907 | 1121.2 m/s
373.13 K, 200020 kPa, x2 = 0.9907 | 1188.3 m/s
